Results reported in the supplement of paper PMC11208160.

Assay: recombinant barcode read abundance after kanamycin selection (control-corrected) (log10(CPM+1)); higher = more efficient recombination; sequences stand for … in AGTGCAGAGAAAATCGGCCAGTTTTCTCTGCCTGCAGTCCGCATGCCGT…AGATTTATGCAGCGGACTGCCTTTCTCCCAAAGTGATAAACCGGACAGTATCATGGACCGGTTTTCCCGGTAATCCGTATTTGCAAGGTTGGTTTCACT; site = the 11-nt target
Procedure: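 Pooled E. coli target-specificity screen for the IS621 bridge recombinase. Each library plasmid pairs an 11-nt target (CT core) with a bridge RNA whose target-binding loop (9-nt LTG + 4-nt RTG) is reprogrammed; the rest of the 177-nt WT IS621 bridge RNA scaffold is fixed. The plasmid is co-electroporated with a WT donor plasmid; recombinase is induced with 0.1 mM IPTG and recombinants are selected on kanamycin. Recombinant barcodes are sequenced, converted to CPM, averaged over two biological replicates and corrected by the unselected control CPM. Molecule = full bridge RNA written as DNA: LTG = specificity nt 1-9, RTG = reverse complement of specificity nt 8-11, in the WT scaffold.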
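Further: IS621 recombinase and bridge RNA in Escherichia coli cells.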

AATTCGACTTGGGTTCTAACCTGTTGCCT (site ACTTCGACTAG)
recombinant barcode read abundance (log10): 0.0747

AATTCGACTTGGGTTCTAACCTGTTGCCT (site AGTTCGACTAG)
recombinant barcode read abundance (log10): 0.222

AATTCGACTTGGGTTCTAACCTGTTGCCT (site ATTTCGACTAG)
recombinant barcode read abundance (log10): 0

AATTGTCCTTGGGTTCTAACCTGTTGCTT (site AATTGTCCTAA)
recombinant barcode read abundance (log10): 0.246

AATTGTCCTTGGGTTCTAACCTGTTGCTT (site AATTGTCCTAC)
recombinant barcode read abundance (log10): 0.257

AATTGTCCTTGGGTTCTAACCTGTTGCTT (site AATTGTCCTAG)
recombinant barcode read abundance (log10): 0.0453

AATTGTCCTTGGGTTCTAACCTGTTGCTT (site AATTGTCCTAT)
recombinant barcode read abundance (log10): 0.125

AATTGTTCTTGGGTTCTAACCTGTTGCCT (site AATGCTTCTAG)
recombinant barcode read abundance (log10): 0.028

AATTGTTCTTGGGTTCTAACCTGTTGCCT (site AATTGTTCTAG)
recombinant barcode read abundance (log10): 0.253

AATTTCTCTTGGGTTCTAACCTGTTGCCT (site AATTTCTCTAG)
recombinant barcode read abundance (log10): 0.0321

AATTTCTCTTGGGTTCTAACCTGTTGCCT (site CATTTCTCTAG)
recombinant barcode read abundance (log10): 0.0907

AATTTCTCTTGGGTTCTAACCTGTTGCCT (site GATTTCTCTAG)
recombinant barcode read abundance (log10): 0.496

AATTTCTCTTGGGTTCTAACCTGTTGCCT (site TATTTCTCTAG)
recombinant barcode read abundance (log10): 0.0924

ACAAAGACTTGGGTTCTAACCTGTTGCGC (site ACAAAGACTGC)
recombinant barcode read abundance (log10): 0.656

ACAAAGACTTGGGTTCTAACCTGTTGCGC (site ACACAGACTGC)
recombinant barcode read abundance (log10): 0.242

ACAAAGACTTGGGTTCTAACCTGTTGCGC (site ACAGAGACTGC)
recombinant barcode read abundance (log10): 0.326

ACAAAGACTTGGGTTCTAACCTGTTGCGC (site ACATAGACTGC)
recombinant barcode read abundance (log10): 0.137

ACAAAGGCTTGGGTTCTAACCTGTTGCGG (site ACAAAAGCTCC)
recombinant barcode read abundance (log10): 1.69

ACAAAGGCTTGGGTTCTAACCTGTTGCGG (site ACAAAGGCTCC)
recombinant barcode read abundance (log10): 2.51

ACAAGACCTTGGGTTCTAACCTGTTGCAT (site ACAAGACCTAT)
recombinant barcode read abundance (log10): 1.47

ACAAGACCTTGGGTTCTAACCTGTTGCAT (site TTCTAGTCTTA)
recombinant barcode read abundance (log10): 0.0713

ACAATACCTTGGGTTCTAACCTGTTGCCT (site ACAATACCTAG)
recombinant barcode read abundance (log10): 1.16

ACAATACCTTGGGTTCTAACCTGTTGCCT (site ATAATACCTAG)
recombinant barcode read abundance (log10): 0.143

ACAATAGCTTGGGTTCTAACCTGTTGCTG (site ACAATAGCTCA)
recombinant barcode read abundance (log10): 0.738

ACAATAGCTTGGGTTCTAACCTGTTGCTG (site ACACTAGCTCA)
recombinant barcode read abundance (log10): 0.0138

ACAATAGCTTGGGTTCTAACCTGTTGCTG (site ACAGTAGCTCA)
recombinant barcode read abundance (log10): 0.0118

ACAATAGCTTGGGTTCTAACCTGTTGCTG (site ACATTAGCTCA)
recombinant barcode read abundance (log10): 0.0649

ACAATGACTTGGGTTCTAACCTGTTGCCT (site ACAATGACTAG)
recombinant barcode read abundance (log10): 0.904

ACAATGACTTGGGTTCTAACCTGTTGCCT (site ACAGTGACTAG)
recombinant barcode read abundance (log10): 0.132

ACACCGCCTTGGGTTCTAACCTGTTGCCT (site ACACCGCCTAG)
recombinant barcode read abundance (log10): 0.299

ACACCGCCTTGGGTTCTAACCTGTTGCCT (site CCACCGCCTAG)
recombinant barcode read abundance (log10): 0.118

ACACCGCCTTGGGTTCTAACCTGTTGCCT (site GCACCGCCTAG)
recombinant barcode read abundance (log10): 0.192

ACACCGCCTTGGGTTCTAACCTGTTGCCT (site TCACCGCCTAG)
recombinant barcode read abundance (log10): 0.118

ACACGTGCTTGGGTTCTAACCTGTTGCGA (site ACACGTGCTTC)
recombinant barcode read abundance (log10): 1.46

ACACGTGCTTGGGTTCTAACCTGTTGCGA (site CAGAAGTCTAA)
recombinant barcode read abundance (log10): 0.215

ACACTAGCTTGGGTTCTAACCTGTTGCTG (site ACAATAGCTCA)
recombinant barcode read abundance (log10): 0.313

ACACTAGCTTGGGTTCTAACCTGTTGCTG (site ACACTAGCTCA)
recombinant barcode read abundance (log10): 1.19

ACACTAGCTTGGGTTCTAACCTGTTGCTG (site ACAGTAGCTCA)
recombinant barcode read abundance (log10): 0.445

ACACTAGCTTGGGTTCTAACCTGTTGCTG (site ACATTAGCTCA)
recombinant barcode read abundance (log10): 0.0774

ACAGAGACTTGGGTTCTAACCTGTTGCGC (site ACAAAGACTGC)
recombinant barcode read abundance (log10): 0.372

ACAGAGACTTGGGTTCTAACCTGTTGCGC (site ACACAGACTGC)
recombinant barcode read abundance (log10): 0.127

ACAGAGACTTGGGTTCTAACCTGTTGCGC (site ACAGAGACTGC)
recombinant barcode read abundance (log10): 1.46

ACAGAGACTTGGGTTCTAACCTGTTGCGC (site ACATAGACTGC)
recombinant barcode read abundance (log10): 0.221

ACAGCCTCTTGGGTTCTAACCTGTTGCCT (site ACAGCCTCTAG)
recombinant barcode read abundance (log10): 2.84

ACAGCCTCTTGGGTTCTAACCTGTTGCCT (site ACAGGCTCTAG)
recombinant barcode read abundance (log10): 0.156

ACAGGCTCTTGGGTTCTAACCTGTTGCCT (site ACAGCCTCTAG)
recombinant barcode read abundance (log10): 0.0406

ACAGGCTCTTGGGTTCTAACCTGTTGCCT (site ACAGGCTCTAG)
recombinant barcode read abundance (log10): 1.82

ACAGGTACTTGGGTTCTAACCTGTTGCCT (site ACAGGTACTAG)
recombinant barcode read abundance (log10): 1.18

ACAGGTACTTGGGTTCTAACCTGTTGCCT (site CCAGGTACTAG)
recombinant barcode read abundance (log10): 0.428

ACAGGTACTTGGGTTCTAACCTGTTGCCT (site GCAGGTACTAG)
recombinant barcode read abundance (log10): 0.0917

ACAGGTACTTGGGTTCTAACCTGTTGCCT (site TCAGGTACTAG)
recombinant barcode read abundance (log10): 0.456

ACAGGTCCTTGGGTTCTAACCTGTTGCGA (site ACAGGTCCTTC)
recombinant barcode read abundance (log10): 3.05

ACAGGTCCTTGGGTTCTAACCTGTTGCGA (site GTCATGTCTCA)
recombinant barcode read abundance (log10): 0

ACAGTATCTTGGGTTCTAACCTGTTGCTG (site ACAGTATCTCA)
recombinant barcode read abundance (log10): 0.479

ACAGTATCTTGGGTTCTAACCTGTTGCTG (site TGCAATACTAT)
recombinant barcode read abundance (log10): 0

ACATAGTCTTGGGTTCTAACCTGTTGCCT (site ACATAGTCTAG)
recombinant barcode read abundance (log10): 1.75

ACATAGTCTTGGGTTCTAACCTGTTGCCT (site AGATACTCTAG)
recombinant barcode read abundance (log10): 0.0816

ACATATCCTTGGGTTCTAACCTGTTGCGT (site ACATATCCTAC)
recombinant barcode read abundance (log10): 1.78

ACATATCCTTGGGTTCTAACCTGTTGCGT (site ACCTACCCTAC)
recombinant barcode read abundance (log10): 0.0409

ACATGAACTTGGGTTCTAACCTGTTGCCT (site ACATGAACTAG)
recombinant barcode read abundance (log10): 1.47

ACATGAACTTGGGTTCTAACCTGTTGCCT (site ACCTGAACTAG)
recombinant barcode read abundance (log10): 0.0918

ACATGAACTTGGGTTCTAACCTGTTGCCT (site ACGTGAACTAG)
recombinant barcode read abundance (log10): 0.0989

ACATGAACTTGGGTTCTAACCTGTTGCCT (site ACTTGAACTAG)
recombinant barcode read abundance (log10): 0.101

ACATGCACTTGGGTTCTAACCTGTTGCAT (site ACATGAACTAT)
recombinant barcode read abundance (log10): 0.0673

ACATGCACTTGGGTTCTAACCTGTTGCAT (site ACATGCACTAT)
recombinant barcode read abundance (log10): 1.05

ACATGCACTTGGGTTCTAACCTGTTGCAT (site ACATGGACTAT)
recombinant barcode read abundance (log10): 0.0168

ACATGCACTTGGGTTCTAACCTGTTGCAT (site ACATGTACTAT)
recombinant barcode read abundance (log10): 0.116

ACATGTCCTTGGGTTCTAACCTGTTGCAT (site ACATGTCCTAA)
recombinant barcode read abundance (log10): 0.374

ACATGTCCTTGGGTTCTAACCTGTTGCAT (site ACATGTCCTAC)
recombinant barcode read abundance (log10): 1.24

ACATGTCCTTGGGTTCTAACCTGTTGCAT (site ACATGTCCTAG)
recombinant barcode read abundance (log10): 0.137

ACATGTCCTTGGGTTCTAACCTGTTGCAT (site ACATGTCCTAT)
recombinant barcode read abundance (log10): 1.99

ACATTGTCTTGGGTTCTAACCTGTTGCCT (site ACATTGTCTAG)
recombinant barcode read abundance (log10): 1.73

ACATTGTCTTGGGTTCTAACCTGTTGCCT (site ACCTTGTCTAG)
recombinant barcode read abundance (log10): 0.0705

ACATTGTCTTGGGTTCTAACCTGTTGCCT (site ACGTTGTCTAG)
recombinant barcode read abundance (log10): 0.0669

ACATTGTCTTGGGTTCTAACCTGTTGCCT (site ACTTTGTCTAG)
recombinant barcode read abundance (log10): 0.284

ACATTTACTTGGGTTCTAACCTGTTGCCT (site ACATTTACTAG)
recombinant barcode read abundance (log10): 0.0855

ACATTTACTTGGGTTCTAACCTGTTGCCT (site TCATATACTAG)
recombinant barcode read abundance (log10): 0.242

ACATTTCCTTGGGTTCTAACCTGTTGCAT (site ACATTTCCTAT)
recombinant barcode read abundance (log10): 0.8

ACATTTCCTTGGGTTCTAACCTGTTGCAT (site TAGAACTCTGC)
recombinant barcode read abundance (log10): 0.105

ACCAAAGCTTGGGTTCTAACCTGTTGCCA (site ACCAAAGCTTG)
recombinant barcode read abundance (log10): 0.115

ACCAAAGCTTGGGTTCTAACCTGTTGCCA (site ACCACAGCTAG)
recombinant barcode read abundance (log10): 0.137

ACCAAATCTTGGGTTCTAACCTGTTGCCG (site ACCAAATCTCG)
recombinant barcode read abundance (log10): 0.0782
